The text below walks through data of PubChem BioAssay (NCI).

Among the test systems are DU-145 prostate; UACC-257 melanoma; SK-OV-3 ovarian; ACHN renal; NCI-H226 lung; SNB-75 CNS; CAKI-1 renal; OVCAR-5 ovarian; OVCAR-3 ovarian; LOX IMVI melanoma.
Common to all, as to experiment: NCI tumour cell line growth inhibition, 48 h

The structures appear in SMILES notation.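 Each compound was tested at five concentrations against cells in 96-well plates for 48 hours. Here, GI50 denotes the concentration required for 50% inhibition of growth. TGI marks complete inhibition of growth.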 A value given as a limit tells only on which side of the number the result lay.

On to `CCCCCCCC[N+](C)(CCCCCCCC)CCCCCCCC`, for which the GI50 in the assay on DU-145 prostate was 0.414 µM; with UACC-257 melanoma, 0.37 µM; with SK-OV-3 ovarian, 0.468 µM; in the assay on ACHN renal it was 0.427 µM; in the assay on NCI-H226 lung, 0.406 µM; in the assay with SNB-75 CNS, 0.489 µM. Moreover, the GI50 in the assay with CAKI-1 renal was 0.0838 µM; in the assay with OVCAR-5 ovarian, 0.621 µM; with OVCAR-3 ovarian, 0.267 µM; in the assay with LOX IMVI melanoma it was 0.247 µM. Besides, the TGI came out at 1.41 µM in the assay on DU-145 prostate; 1.15 µM in the assay on UACC-257 melanoma; 1.71 µM in the assay on SK-OV-3 ovarian; 1.46 µM with ACHN renal; 1.49 µM in the assay with NCI-H226 lung; 1.42 µM with SNB-75 CNS. For the same compound, the TGI with CAKI-1 renal was found to be 0.639 µM; in the assay with OVCAR-5 ovarian, 1.98 µM; in the assay on OVCAR-3 ovarian, 0.792 µM; in the assay with LOX IMVI melanoma, 0.709 µM.

With `C[C@@H]1C=C2C(=O)O[C@@H]3CC[C@H](C1)[C@]23O`, the GI50 in the assay on DU-145 prostate was 2.14 µM; in the assay on UACC-257 melanoma it was 2.33 µM; with SK-OV-3 ovarian it was 15.5 µM; with ACHN renal, 3.93 µM; in the assay on NCI-H226 lung, 7.02 µM; in the assay with SNB-75 CNS, 3.33 µM. Also, the GI50 is 2.82 µM in the assay with OVCAR-5 ovarian, 3.44 µM in the assay on OVCAR-3 ovarian and 3.33 µM in the assay on LOX IMVI melanoma. Moreover, the TGI in the assay with DU-145 prostate was 5.78 µM; in the assay on UACC-257 melanoma, 16.2 µM; in the assay on SK-OV-3 ovarian it was 64.3 µM; in the assay with ACHN renal it was 16.9 µM; in the assay on NCI-H226 lung it was 40 µM; in the assay with SNB-75 CNS, 20.2 µM. Besides, the TGI with CAKI-1 renal came to 12.7 µM; with OVCAR-5 ovarian, 10.8 µM; with OVCAR-3 ovarian, 11.1 µM; in the assay on LOX IMVI melanoma it was 13.3 µM.

Consider `Cc1ccc(C)c(-c2csc(Nc3ccc(C)c(C)c3)n2)c1`, for which the GI50 in the assay with DU-145 prostate was over 100 µM; with UACC-257 melanoma, over 100 µM; in the assay on SK-OV-3 ovarian, over 100 µM; with ACHN renal, 82.2 µM; in the assay with NCI-H226 lung, over 100 µM; with SNB-75 CNS, 15.8 µM. Besides, the GI50 in the assay on CAKI-1 renal is over 100 µM; in the assay on OVCAR-5 ovarian, over 100 µM; in the assay with OVCAR-3 ovarian, 66.3 µM; in the assay on LOX IMVI melanoma, over 100 µM. Moreover, the TGI was over 100 µM in the assay on DU-145 prostate; over 100 µM in the assay on UACC-257 melanoma; over 100 µM in the assay with SK-OV-3 ovarian; over 100 µM in the assay on ACHN renal; over 100 µM in the assay with NCI-H226 lung; 53.2 µM with SNB-75 CNS. Further, the TGI with CAKI-1 renal, in the assay on OVCAR-5 ovarian, in the assay on OVCAR-3 ovarian and in the assay with LOX IMVI melanoma was over 100 µM each time.

As for `C[C@H]1[C@H](C)CC[C@]2(C(=O)O)CC[C@]3(C)C(=CC[C@@H]4[C@@]5(C)C/C(=C/c6ccco6)C(=O)C(C)(C)[C@@H]5CC[C@]43C)[C@H]12`, the GI50 was 6.41 µM with DU-145 prostate; 6.49 µM in the assay with UACC-257 melanoma; 5.83 µM in the assay with SK-OV-3 ovarian; 3.6 µM in the assay with ACHN renal; 4.36 µM in the assay on NCI-H226 lung; 18.6 µM with SNB-75 CNS. In addition, the GI50 was 4.55 µM in the assay with CAKI-1 renal, 7.59 µM with OVCAR-5 ovarian, 3.44 µM with OVCAR-3 ovarian and 4.51 µM in the assay on LOX IMVI melanoma. The TGI in the assay with DU-145 prostate was 30.9 µM; in the assay with UACC-257 melanoma it was 29.1 µM; in the assay on SK-OV-3 ovarian, 33.9 µM; with ACHN renal, 13.5 µM; in the assay with NCI-H226 lung, 23.2 µM; in the assay on SNB-75 CNS it was 71.8 µM. The TGI in the assay with CAKI-1 renal is 18 µM; in the assay with OVCAR-5 ovarian, 21 µM; in the assay on OVCAR-3 ovarian, 11.9 µM; in the assay with LOX IMVI melanoma, 17 µM.

Regarding `NCc1nnn(Cc2ccccc2)c1N`, the TGI in the assay on DU-145 prostate, with UACC-257 melanoma, in the assay with SK-OV-3 ovarian, in the assay on ACHN renal, in the assay with NCI-H226 lung and in the assay on SNB-75 CNS was over 100 µM in each case. In addition, the TGI in the assay on CAKI-1 renal, in the assay with OVCAR-5 ovarian, with OVCAR-3 ovarian and in the assay on LOX IMVI melanoma was over 100 µM each time.

With `Nc1c(C(=O)Nc2ccccc2Cl)sc2nc3c(cc12)CCCCCC3`, the GI50 is 7.84 µM in the assay on DU-145 prostate; 11.1 µM with UACC-257 melanoma; 2.65 µM with SK-OV-3 ovarian; 2.17 µM in the assay on ACHN renal; 3.76 µM with NCI-H226 lung; 1.57 µM with SNB-75 CNS. Moreover, the GI50 was 3.74 µM in the assay with CAKI-1 renal, 6.88 µM in the assay with OVCAR-5 ovarian, 3.23 µM with OVCAR-3 ovarian and 5.7 µM in the assay with LOX IMVI melanoma. The TGI in the assay on DU-145 prostate was over 100 µM; in the assay on UACC-257 melanoma, over 100 µM; in the assay with SK-OV-3 ovarian it was 7.88 µM; in the assay with ACHN renal it was 4.86 µM; in the assay on NCI-H226 lung, 24.5 µM; in the assay with SNB-75 CNS it was 3.35 µM. Moreover, the TGI in the assay on CAKI-1 renal is over 100 µM; in the assay on OVCAR-5 ovarian, over 100 µM; in the assay with OVCAR-3 ovarian, 12.7 µM; in the assay with LOX IMVI melanoma, over 100 µM.

On to `Cc1ccc(S(=O)(=O)N2CCc3ccc(O)c4c3C2Cc2cc(Cl)ccc2-4)cc1` (centres undefined), for which the GI50 in the assay on DU-145 prostate was 0.912 µM; with UACC-257 melanoma, 1.45 µM; in the assay with SK-OV-3 ovarian it was 1.11 µM; with ACHN renal, 2.06 µM; in the assay on NCI-H226 lung, 2.63 µM; with SNB-75 CNS, 0.639 µM. In addition, the GI50 in the assay on CAKI-1 renal was 1.3 µM; in the assay on OVCAR-5 ovarian, 2.02 µM; in the assay with OVCAR-3 ovarian it was 0.733 µM; in the assay with LOX IMVI melanoma, 1.84 µM. The TGI in the assay on DU-145 prostate was 2.4 µM; with UACC-257 melanoma, 7.08 µM; with SK-OV-3 ovarian it was 3.75 µM; in the assay with ACHN renal, 23.5 µM; in the assay with NCI-H226 lung, 8.4 µM; with SNB-75 CNS, 2.42 µM. The TGI worked out at 16.9 µM with CAKI-1 renal, 16.5 µM in the assay with OVCAR-5 ovarian, 1.63 µM in the assay on OVCAR-3 ovarian and 6.02 µM in the assay on LOX IMVI melanoma.
